Data published in the supplement of paper PMC10307832.

Key:
Experiment in all cases: relative viability (nuclei count vs DMSO), 5 days (fraction); higher = more cells survive
[1] = compound: COc1cc2ncn(-c3cc(OCc4ccccc4C(F)(F)F)c(C(N)=O)s3)c2cc1OC + COc1cc2c(Oc3ccc(NC(=O)C4(C(=O)Nc5ccc(F)cc5)CC4)cc3F)ccnc2cc1OCCCN1CCOCC1 [Foretinib] (partner 0.25 µM)
How it was run: (§1)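 Lung cancer cell lines in 1536-well plates got either a single drug or a fixed anchor-drug dose together with five library-drug doses (not always all listed) in √10 steps, by pin tool, on the day after seeding. Nuclei were counted after 5 days, and relative viability is the treated-to-vehicle ratio of nuclei counts. Values are medians of duplicate plates.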

[2] = compound: COc1cc2ncn(-c3cc(OCc4ccccc4C(F)(F)F)c(C(N)=O)s3)c2cc1OC + NC(=O)Nc1cc(-c2cccc(F)c2)sc1C(=O)N[C@H]1CCCNC1 [AZD7762] (partner 0.2 µM)
How it was run: as §1

[3] = compound: COc1cc2ncn(-c3cc(OCc4ccccc4C(F)(F)F)c(C(N)=O)s3)c2cc1OC + O=C(CCCCCCC(=O)Nc1ccccc1)NO [Vorinostat] (partner 1 µM)
How it was run: as §1

[4] = compound: COc1cc2ncn(-c3cc(OCc4ccccc4C(F)(F)F)c(C(N)=O)s3)c2cc1OC + CS(=O)(=O)N1CCN(Cc2cc3nc(-c4cccc5[nH]ncc45)nc(N4CCOCC4)c3s2)CC1 [Pictilisib] (partner 1 µM)
How it was run: as §1

| Cell Line | relative viability ([1]; first compound 0.05 µM) | relative viability ([1]; first compound 0.1581 µM) | relative viability ([1]; first compound 0.5 µM) | relative viability ([1]; first compound 1.581 µM) | relative viability ([1]; first compound 5 µM) | relative viability ([2]; first compound 0.05 µM) | relative viability ([2]; first compound 0.1581 µM) | relative viability ([2]; first compound 0.5 µM) | relative viability ([2]; first compound 1.581 µM) | relative viability ([2]; first compound 5 µM) | relative viability ([3]; first compound 0.05 µM) | relative viability ([3]; first compound 0.1581 µM) | relative viability ([3]; first compound 0.5 µM) | relative viability ([3]; first compound 1.581 µM) | relative viability ([3]; first compound 5 µM) | relative viability ([4]; first compound 0.05 µM) | relative viability ([4]; first compound 0.1581 µM) | relative viability ([4]; first compound 0.5 µM) | relative viability ([4]; first compound 1.581 µM) | relative viability ([4]; first compound 5 µM) |
| --- | --- | --- | --- | --- | --- | --- | --- | --- | --- | --- | --- | --- | --- | --- | --- | --- | --- | --- | --- | --- |
| 201T | 1.06 | 1.09 | 1.07 | 0.414 | 0.165 | 0.642 | 0.668 | 0.554 | 0.442 | 0.242 | 1.01 | 0.994 | 0.815 | 0.283 | 0.195 | 0.717 | 0.743 | 0.682 | 0.319 | 0.247 |
| PC-14 | 0.934 | 0.929 | 0.784 | – | 0.629 | 0.371 | 0.405 | 0.334 | 0.113 | 0.0718 | 0.662 | 0.655 | 0.141 | 0.0309 | 0.0197 | 0.717 | 0.694 | 0.343 | 0.0295 | 0.0382 |
| PC-3 [JPC-3] | 0.96 | 0.992 | 0.402 | 0.238 | 0.233 | 0.833 | 0.741 | 0.597 | 0.238 | 0.252 | 0.907 | 0.82 | 0.515 | 0.464 | 0.31 | 0.728 | 0.78 | 0.611 | 0.327 | 0.26 |
| LK-2 | 1.27 | 0.987 | 0.266 | 0.163 | 0.135 | 0.386 | 0.366 | 0.202 | 0.115 | 0.126 | 0.241 | 0.159 | 0.125 | 0.124 | 0.12 | 0.548 | 0.566 | 0.307 | 0.263 | 0.306 |
| NCI-H1944 | 0.804 | 1.03 | 0.743 | 0.221 | 0.131 | 0.546 | 0.545 | 0.426 | 0.168 | 0.0968 | 0.609 | 0.602 | 0.456 | 0.166 | 0.127 | 0.368 | 0.363 | 0.307 | 0.206 | 0.166 |
| HCC-78 | 0.574 | 0.585 | 0.469 | 0.327 | 0.379 | 0.795 | 0.653 | 0.493 | 0.565 | 0.422 | 0.483 | 0.396 | 0.281 | 0.261 | 0.223 | 0.221 | 0.188 | 0.186 | 0.206 | 0.186 |
| NCI-H2405 | 0.998 | 0.817 | 0.531 | 0.359 | 0.361 | 0.793 | 0.703 | 0.446 | 0.262 | 0.263 | 1.21 | 0.676 | 0.38 | 0.386 | 0.254 | 0.512 | 0.265 | 0.458 | 0.366 | 0.27 |
| EMC-BAC-2 | 1.11 | 1.01 | 0.815 | 0.309 | 0.212 | 1.18 | 1.21 | 1.08 | 0.357 | 0.223 | 0.899 | 0.535 | 0.305 | 0.223 | 0.158 | 0.581 | 0.46 | 0.526 | 0.352 | 0.139 |
| NCI-H647 | 1.1 | 1.17 | 0.444 | 0.195 | 0.0972 | 0.356 | 0.491 | 0.248 | 0.0314 | 0.026 | 0.326 | 0.489 | 0.113 | 0.0523 | 0.0497 | 0.441 | 0.425 | 0.413 | 0.0779 | 0.057 |
| LCLC-97TM1 | 0.914 | 0.896 | 0.646 | 0.184 | 0.147 | 0.355 | 0.293 | 0.161 | 0.0896 | 0.0604 | 0.803 | 0.822 | 0.0658 | 0.0665 | 0.0652 | 0.203 | 0.2 | 0.123 | 0.134 | 0.125 |
| H3255 | 0.876 | 1.06 | 0.714 | – | 0.542 | 0.946 | 0.922 | 0.625 | 0.395 | 0.324 | 0.806 | 0.492 | 0.627 | 0.606 | 0.481 | 0.458 | 0.467 | 0.247 | 0.21 | 0.187 |
| LXF-289 | 0.92 | 0.858 | 0.483 | 0.158 | 0.0736 | 1.1 | 1 | 0.983 | 0.134 | 0.0617 | 0.78 | 0.622 | 0.421 | 0.11 | 0.0692 | 0.789 | 0.752 | 0.447 | 0.0857 | 0.0529 |
| NCI-H596 | 1.03 | 0.908 | 0.481 | 0.307 | 0.242 | 1.1 | 1.14 | 0.943 | 0.664 | 0.413 | 0.598 | 0.405 | 0.515 | 0.246 | 0.162 | 0.393 | 0.405 | 0.371 | 0.191 | 0.178 |
| LC-2-ad | 0.916 | 0.946 | 0.506 | 0.286 | 0.303 | 0.769 | 0.896 | 0.576 | 0.14 | 0.129 | 0.559 | 0.543 | 0.129 | 0.161 | 0.129 | 0.383 | 0.108 | 0.0797 | 0.0935 | 0.0834 |
| A-427 | 1.13 | 0.923 | 0.81 | 0.398 | 0.137 | 0.793 | 0.68 | 0.682 | 0.231 | 0.153 | 0.88 | 0.947 | 0.684 | 0.194 | 0.154 | 0.76 | 0.527 | 0.729 | 0.262 | 0.117 |
| NCI-H322M | 0.956 | 1.16 | 0.857 | 0.499 | 0.406 | 0.593 | 0.722 | 0.498 | 0.451 | 0.413 | 0.933 | 0.914 | 0.78 | 0.522 | 0.428 | 0.549 | 0.505 | 0.556 | 0.384 | 0.318 |
